Laboratory results published in patent publication US12285408B2, “Methods and compositions for the treatment of snake bite” (priority 2021, dated 2025).
Read-outs that look alike come from different tables or passages of the source.

What was measured:
[1] = system: SVMP activity of E. ocellatus, E. carinatus, B. asper and B. arietans venoms; assay: In vitro kinetic fluorogenic SVMP assay (Study 2); assay type: biochemical
Source text: FIG. 10. […] (A) SVMP activities of the five viper venoms quantified by fluorogenic assay. The data presented represent mean measurements and SEMs of area under the curves of fluorescent arbitrary units taken from three independent experimental runs. EOC, E. ocellatus; ECAR, E. carinatus; BAS, Bothrops asper, BAR, Bitis arietans; DRUS, Daboia russelii. (B) The effectiveness of metal chelators and peptidomimetic hydroxamate inhibitors at inhibiting the SVMP activity of the various viper venoms. Drug concentrations from 150 μM to 150 nM (highest to lowest dose tested) are presented. The data is expressed as percentage of the venom-only sample (100%, top dashed line). The negative control is presented as an interval (bottom dashed lines) and represents the values recorded in the PBS-only samples (expressed as percentage of venom activity), where the highest and the lowest values in each set of independent experiments are depicted. […] All data represent triplicate independent repeats with SEMs, where each technical repeat represents the mean of n≥2 technical replicates.
We used an in vitro kinetic fluorogenic assay^28 to assess the SVMP bioactivity of each venom and its inhibition by varying concentrations of the four SVMP-inhibitors.
The SVMP assay measuring metalloproteinase activity and the plasma assay measuring coagulation in the presence or absence of venoms and inhibitors were performed as previously described^28. The SVMP assay kinetically measured cleavage of a quenched fluorogenic substrate (ES010, R&D Biosystems) by venom in the presence or absence of inhibitors.
Briefly, 10 μl of the substrate (supplied as a 6.2 mM stock) was used per 5 ml reaction buffer (150 mM NaCl, 50 mM Tris-CI pH 7.5). Reactions consisted of 10 μl of venom±inhibitors in PBS and 90 μl of substrate. Venoms were used at 1 μg/reaction and final inhibitor concentrations ranged from 150 μM to 150 nM. Samples were preincubated for 30 min at 37° C. and pipetted in triplicate into 384-well plates (Greiner). Thereafter, data was collected on an Omega FLUOstar (BMG Labtech) instrument at an excitation wavelength of 320 nm and emission wavelength of 405 nm at 25° C. for 1 h. The areas under the curve (AUCs) in the 0-40 min interval were calculated for each sample using MARS data analysis software v3.31 (BMG Labtech); this time point was chosen as the time where all fluorescence curves had reached a plateau (maximum fluorescence). For comparing venom-only samples, the means of at least three independent experimental runs for each condition, expressed as AUCs (n≥3), were plotted at each inhibitor concentration with standard error of the mean (SEM). To determine inhibitor efficacy, the AUCs for each of the samples that consisted of venom+inhibitors were transformed and expressed as percentages of the venom-only sample (where the venom was 100%). The negative control (PBS only) was also expressed relative to the venom, and the variation in background was presented as an interval delineated by the lowest and highest values in the PBS-only samples across concentrations and inhibitors for a specific venom. […] However, only the latter two concentrations were sufficiently depleted of DMSO for viable use in the assay.

[2] = system: procoagulant and anticoagulant toxins fractionated from D. russelii venom; assay: Nanofractionation of D. russelii venom with plasma coagulation assay; assay type: biochemical, Daboia russelii; conditions: inhibitor 20 μM to 0.0064 μM
Experimental: FIG. 12. […] The data is plotted separately for ‘very fast coagulation’, ‘medium coagulation’ and ‘anticoagulation’, based on the slopes of the 0-5 min and 0-20 min readings, and the single endpoint reading at 180 min. The tested inhibitor concentrations are presented alongside the chromatograms. […] The data is presented as the maximal clotting velocity at each concentration, and represents means of triplicate independent repeats with SEMs, where each technical repeat represents the mean of n≥2 technical replicates. The venom-only control (top dashed lines) and the negative control (bottom dashed lines) are presented as intervals and represent the average±SEM observed for the venom-only and PBS controls across all datasets and replicates.
Fifty microlitres of venom solution (D. russelii; 1 mg/ml) was injected into a Shimadzu LC-2010 system with nanofractionation in parallel. Separation was performed on a Waters XBridge reversed-phase C18 column (250×4.6 mm column with 3.5 μm pore-size) at 30° C. The total flow rate of the mobile phase solution was 0.5 ml/min with eluent A (98% H2O, 2% acetonitrile [ACN], 0.1% formic acid [FA]) and eluent B (98% ACN, 2% H2O, 0.1% FA). Liquid chromatography gradients consisted of a linear increase of mobile phase B from 0 to 50% in 20 min, followed by a linear increase to 90% B in 4 min, then isocratic at 90% B for 5 min, after which the percentage of mobile phase B was decreased from 90% to 0% in 1 min, followed by 10 min at 0% B to re-equilibrate. The effluent was split in a 1:9 ratio of which the 10% fraction was sent to a Shimadzu SPD-M20A prominence diode array detector and the 90% fraction was directed to a nanofractionation collector which dispensed the fractions into transparent 384-well plates (F-bottom, rounded square well, polystyrene, without lid, clear, non-sterile; Greiner Bio One, Alphen aan den Rijn, The Netherlands) at a resolution of 6 s/well. […]
The final assay concentrations of the inhibitors tested in the assay were 20 μM, 4 μM, 0.8 μM, 0.16 μM, 0.032 μM and 0.0064 μM. […] The plate was then read immediately for absorbance kinetically for 100 min at 595 nm at 25° C. using a Varioskan™ Flash Multimode Reader (Thermo Fisher Scientific, Ermelo, The Netherlands). The obtained results were normalized by dividing the slope measured in each well by the median of all slope values across the plate, and the processed coagulation chromatograms were plotted to visualize very fast coagulation, medium increased coagulation and anticoagulation, as previously described^37.

[3] = cited from earlier work

SMILES | lowest concentration effective / required to fully inhibit SVMP activities ([1]; concentrations tested 150 μM to 150 nM) [µM] | IC50 ([1]; range across venoms, 1 μg venom/reaction, read-out: IC50s, inhibition of SVMP activity) [nM] | inhibition of anticoagulant fractions of D. russelii venom [2] | inhibition of procoagulant fractions of D. russelii venom [2] | half-life ([3]; delivered by iv infusion) [h] | oral bioavailability (words) ([3]; human, in vivo, po) | oral bioavailability ([3]; human, in vivo, po) [%] | oral bioavailability (words) ([3]; human, in vivo, po, listed as Marimastat) | half-life ([3]; oral) [h] | time to peak plasma concentrations post-administration ([3]; oral) [h] | neutralization of SVMP bioactivity ([1]; marimastat 150 nM-150 μM, batimastat […] and 150 nM only)
O=S(=O)(O)CC(S)CS (centres unmarked) [DMPS, 2,3-dimercapto-1-propanesulfonic acid] | 15 | 290 to 4190 |  |  |  |  |  |  |  |  | 
CCc1c(C(=O)C(N)=O)c2c(OCC(=O)O)cccc2n1Cc1ccccc1 [varespladib] |  |  | effectively inhibited the anticoagulant activity | some inhibitory effect against procoagulant venom toxins, but only at very high doses (20 μM) | 5 | good oral bioavailability |  |  |  |  | 
CNC(=O)[C@@H](NC(=O)[C@H](CC(C)C)[C@H](O)C(=O)NO)C(C)(C)C [marimastat] |  |  | not neutralized by this inhibitor at any of the tested concentrations | effectively inhibited in a dose-dependent manner |  | excellent oral bioavailability | 70 | particularly good oral bioavailability | 8 to 10 | 1.5 to 3 | complete in vitro neutralization
